# Reference: paper PMC3280276 (PLoS ONE, 2012)
# Tested on: C-terminal peptide […]
# Format: binding
substance,measurement,value
saporin,interaction with C-terminal peptide […],did not observe any measurable interactions
